According to patent US11840531B2, “CDK8/19 inhibitors” (JOINT STOCK COMPANY “BIOCAD”, priority 2018, dated 2023):
pIC50: −log10 of the molar value.

Tests used:
CDK8/Cyclin C = CDK8/Cyclin C (Homo sapiens (Human), UniProt P49336); test: LanthaScreen binding to recombinant CDK8/Cyclin C; conditions: TR-FRET, Tracer 236 10 nM, CDK8/Cyclin C 5 nM
Method: Capability of compounds of the present invention to bind to CDK8 protein was detected using LanthaScreen (ThermoFisher) assay. We detected FRET signal proportional to the amount of CDK8-bound fluorescently-labeled ligand (Tracer 236) that competes with inhibitor for ATP binding site. We carried out the measurements in a 15 μl reaction volume using a 384-well plate (Corning, #CLS4513). Enzyme CDK8/Cyclin C (ThermoFisher, #PR7261B) was mixed with antibodies Anti-His-tag-Biotin (ThermoFisher, #PV6090), Streptavidin-Eu (ThermoFisher, #PV6025), the resulting mixture was added to plate wells (5 MKπ/well). Final concentrations of substances were as follows: CDK8/Cyclin C—5 nM, Streptavidin-Eu—3 nM, Anti-His-tag-Biotin—3 nM. Staurosporine (S4400, Sigma) was used as a reference inhibitor, and 0.1% solution of dimethyl sulphoxide (DMSO) in reaction buffer was used as a blank, the reaction buffer comprised 250 mM HEPES (pH 7.5), 50 mM MgCl2, 5 mM EGTA, and 0.05% Brij-35.
The inhibitors and controls in question were added to corresponding wells (5 μl/well). The plate was incubated at room temperature for 20 minutes. After incubating, 5 μl/well of tracer solution Alexa Fluor-647 (Kinase Tracer 236, ThermoFisher, #PV5592)) was added to the wells. Final concentration of tracer was 10 nM. Reaction buffer, instead of tracer solution, was used as a negative control. The plate was incubated for 40 minutes at 25° C., TR-FRET signal was then measured according to the manufacturer's guidelines on SPARK20 plate reader (Tecan, Switzerland), and the value was converted to the amount of kinase-bound tracer. IC50 values were calculated using SparkControl Magellan 1.2 software (Tecan, Switzerland) approximating experimental points by four-parameter logistic model with the optimization by Levenberg-Marquardt (Table 5).

[1] = Enzyme stability in human liver microsomes (Phase I); type: in vitro ADME; conditions: pH 7.4; 0.5 mg/mL pooled human liver microsomes, 10 μM compound, 37° C.
Method: Measuring of enzyme stability of the present compounds enabled estimation of their stability towards the action of Phase I biotransformation enzymes.
The rate of enzymatic decomposition of a compound was detected by incubating the reaction mixture in a dry block heater at 37° C.; the reaction mixture contained 0.5 mg/mL of pooled human liver microsomes (XenoTech, USA, cat #H6010), 10 μM of a compound, 2 mM β-nicotinamide adenine dinucleotide (Carbosynth, UK, cat #NN10871) and 4 mM of magnesium chloride in 0.1M sodium phosphate buffer (pH=7.4). The reaction was quenched with acetonitrile (100 μL of acetonitrile/100 μL of the reaction mixture). After quenching, the samples were centrifuged at 10000 rpm for 10 minutes. Supernatant fluid was tested by chromatographic technique using Agilent1200 (Agilent, USA). Chromatographic analysis was performed in a gradient elution regime with a flow rate of 1 mL/min. A graph of the logarithm of substance's peak area as a function of time was made. The dependent factor of the line corresponded to the elimination rate constant K based on which the drug's half-lif½e T and degradation rate CLint were calculated:
Based on the data obtained, candidates' enzyme stability in human liver microsomes was determined.

[2] = Stability of the compounds in human blood plasma; type: in vitro ADME; conditions: pooled human blood plasma, 10 μM, 4 hours at 37° C.
Method: To assess the blood plasma stability of the compounds, we used pooled human blood plasma taken from ten healthy donors. The initial candidate solution (10 mM in DMSO) was diluted with pooled blood plasma to a concentration of 10 μm (test solution). The test solution was incubated in a dry block thermostat for 4 hours at 37° C. HPLC with Agilent 1200 liquid chromatography system (Agilent, USA) was employed to determine peak areas of the compounds in test samples, said peak areas corresponding to the initial test time (prior to incubation) and the final test time (after incubation in a dry block thermostat for 4 hours at 37° C.), proteins were preliminarily precipitated with acetonitrile. Chromatographic analysis was performed in a gradient elution regime with a flow rate of 1 mL/min Substance amount in % in a sample after thermostatting was determined.
The stability of the compounds was estimated. The compounds described herein show at least 90% chemical stability, i.e. they are chemically stable in human blood plasma (Table 2).

CDK8/Cyclin C, sequence (P49336 whole entry): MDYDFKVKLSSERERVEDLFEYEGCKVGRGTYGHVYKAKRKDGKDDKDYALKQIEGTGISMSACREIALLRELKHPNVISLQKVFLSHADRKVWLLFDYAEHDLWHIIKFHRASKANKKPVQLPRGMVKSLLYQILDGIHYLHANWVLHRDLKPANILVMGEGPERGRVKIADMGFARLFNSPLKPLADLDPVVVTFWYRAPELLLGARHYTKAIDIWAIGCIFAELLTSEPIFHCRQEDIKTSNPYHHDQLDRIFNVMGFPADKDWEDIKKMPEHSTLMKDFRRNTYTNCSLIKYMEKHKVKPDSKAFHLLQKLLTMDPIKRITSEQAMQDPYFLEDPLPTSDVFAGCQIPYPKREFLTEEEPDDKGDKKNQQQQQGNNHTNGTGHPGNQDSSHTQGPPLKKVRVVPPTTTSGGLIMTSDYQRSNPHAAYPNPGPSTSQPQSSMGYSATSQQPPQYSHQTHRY
CDK8/Cyclin C, sequence (P24863 whole entry partner): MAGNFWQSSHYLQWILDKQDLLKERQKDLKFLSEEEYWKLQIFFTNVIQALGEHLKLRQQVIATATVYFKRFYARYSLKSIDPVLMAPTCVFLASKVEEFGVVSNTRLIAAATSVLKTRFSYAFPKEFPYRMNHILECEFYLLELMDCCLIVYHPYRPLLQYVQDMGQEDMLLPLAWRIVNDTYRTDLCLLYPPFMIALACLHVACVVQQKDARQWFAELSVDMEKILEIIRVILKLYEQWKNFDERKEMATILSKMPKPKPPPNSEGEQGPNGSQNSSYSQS

SMILES | pIC50 (CDK8/Cyclin C) | microsomal CLint at 10 μM [1] | Chemical stability in human blood plasma 4 h, % [2]
COCCn1cc(-c2ccc(-c3cnc(N)c4ncc(C(=O)NC5CC5)cc34)cc2)cn1 [Compound 3.48] | 8.96 | 18 µL/min/mg | 98.4%
COCCn1cc(-c2ccc(-c3cnc(N)c4ncc(C(=O)NCC5CC5)cc34)cc2)cn1 [Compound 3.45, 8-amino-N-(cyclopropylmethyl)-5-(4-(1-(2-methoxyethyl)-1H-pyrazole-4-yl)phenyl)-1,7-naphthyridine-3-carboxamide] | 8.79 | 39.6 µL/min/mg | 91.2%
CN(C)C(=O)Cn1cc(-c2ccc(-c3cnc(N)c4ncc(C(=O)N5CCC5)cc34)cc2)cn1 [Compound 3.52, 2-(4-(4-(8-amino-3-(azetidine-1-carbonyl)-1,7-naphthyridine-5-yl)phenyl)-1H-pyrazole-1-yl)-N,N-dimethylacetamide] | 9.02 | 7 µL/min/mg | 100.0%
